Test results: PMC9271885 (eBioMedicine, 2022)
Values joined by “and” are separate entries in the source; they are usually repeats but may differ in a detail not shown here. Equal entries are not always repeated.

System: SARS-CoV-2
Assay: Hamster model of SARS-CoV-2 infection, oral NTZ treatment (lung infectious titers, lung viral RNA yields, plasma viral loads)
Format: in vivo, Syrian hamsters
Parameters: Lung Infectious titers / Plasmatic viral RNA yields / Lung Viral RNA yields: unit not given here
Conditions: for Lung Infectious titers / Lung Viral RNA yields / Plasmatic viral RNA yields: inoculum 104 TCID50, Figure 3, individual animals
[1] = NTZ 500mg/kg/day BID oral for 3 days, 3 dpi
[2] = NTZ 500mg/kg/day BID oral for 4 days, 5 dpi
[3] = NTZ 750mg/kg/day TID oral for 3 days, 3 dpi
[4] = Nitazoxanide per os 500mg/kg/day BID, sacrifice day 3
[5] = Nitazoxanide per os 500mg/kg/day BID, sacrifice day 5
[6] = Nitazoxanide per os 750mg/kg/day BID, sacrifice day 3

CC(=O)Oc1ccccc1C(=O)Nc1ncc([N+](=O)[O-])s1 [NTZ, Nitazoxanide]
infectious titers in clarified lung homogenates vs untreated animals [1]: no significant differences
viral RNA yields in clarified lung homogenates vs untreated animals [1]: no significant differences
viral RNA yields in plasma vs untreated animals [1]: No significant difference
infectious titers in clarified lung homogenates vs untreated animals [2]: no significant reduction
viral RNA yields in clarified lung homogenates vs untreated animals [2]: no significant reduction
viral RNA yields in plasma vs untreated animals [2]: no significant reduction
infectious titers in clarified lung homogenates vs untreated animals [3]: no significant differences
viral RNA yields in clarified lung homogenates vs untreated animals [3]: no significant differences
viral RNA yields in plasma vs untreated animals [3]: No significant difference
Lung Infectious titers [4]: 8.038 and 8.250 and 7.442 and 7.772 and 7.773 and 7.077
Lung Viral RNA yields [4]: 8.641
Plasmatic viral RNA yields [4]: 5.553 and 4.360 and 4.045 and 4.724 and 5.043 and 5.205
Lung Viral RNA yields [5]: 7.115 and 6.597 and 6.910
Plasmatic viral RNA yields [5]: 3.987 and 3.600 and 3.442 and 4.487 and 3.519
Lung Infectious titers (Nitazoxanide per os 500mg/kg/day BID, sacrifice day 5, § : considered at 60 TCID50/mL (detection threshold)): ≤ 2.486 § and 4.354 and 4.491 and 5.007 and 3.086
Lung Infectious titers [6]: 7.345 and 6.869 and 7.090 and 6.311 and 7.103 and 7.069
Lung Viral RNA yields [6]: 8.692
Plasmatic viral RNA yields [6]: 3.193 and 2.818 and 5.191 and 4.129 and 4.008 and 4.113
